One block for each molecule: values may come before it.
Tests used:
[1] = test system: mouse mesenteric arteries; assay: Wire myography, mesenteric artery strips precontracted with high K+ (KPSS); conditions: for relaxation of KPSS-contracted vessel strips by TRPM8 agonists: wild type, menthol 300μM, icilin 50 μM, WS-12 50μM
hTRPA1 [2] = molecular target: T1, hTRPA1 (Homo sapiens, UniProt O75762); assay: TRP channel panel primary screen (FLIPR Calcium 5, stable HEK line); format: cell-based; conditions: 0.3-300μM; effects over the micromolar range
T1 sequence (O75762 whole entry): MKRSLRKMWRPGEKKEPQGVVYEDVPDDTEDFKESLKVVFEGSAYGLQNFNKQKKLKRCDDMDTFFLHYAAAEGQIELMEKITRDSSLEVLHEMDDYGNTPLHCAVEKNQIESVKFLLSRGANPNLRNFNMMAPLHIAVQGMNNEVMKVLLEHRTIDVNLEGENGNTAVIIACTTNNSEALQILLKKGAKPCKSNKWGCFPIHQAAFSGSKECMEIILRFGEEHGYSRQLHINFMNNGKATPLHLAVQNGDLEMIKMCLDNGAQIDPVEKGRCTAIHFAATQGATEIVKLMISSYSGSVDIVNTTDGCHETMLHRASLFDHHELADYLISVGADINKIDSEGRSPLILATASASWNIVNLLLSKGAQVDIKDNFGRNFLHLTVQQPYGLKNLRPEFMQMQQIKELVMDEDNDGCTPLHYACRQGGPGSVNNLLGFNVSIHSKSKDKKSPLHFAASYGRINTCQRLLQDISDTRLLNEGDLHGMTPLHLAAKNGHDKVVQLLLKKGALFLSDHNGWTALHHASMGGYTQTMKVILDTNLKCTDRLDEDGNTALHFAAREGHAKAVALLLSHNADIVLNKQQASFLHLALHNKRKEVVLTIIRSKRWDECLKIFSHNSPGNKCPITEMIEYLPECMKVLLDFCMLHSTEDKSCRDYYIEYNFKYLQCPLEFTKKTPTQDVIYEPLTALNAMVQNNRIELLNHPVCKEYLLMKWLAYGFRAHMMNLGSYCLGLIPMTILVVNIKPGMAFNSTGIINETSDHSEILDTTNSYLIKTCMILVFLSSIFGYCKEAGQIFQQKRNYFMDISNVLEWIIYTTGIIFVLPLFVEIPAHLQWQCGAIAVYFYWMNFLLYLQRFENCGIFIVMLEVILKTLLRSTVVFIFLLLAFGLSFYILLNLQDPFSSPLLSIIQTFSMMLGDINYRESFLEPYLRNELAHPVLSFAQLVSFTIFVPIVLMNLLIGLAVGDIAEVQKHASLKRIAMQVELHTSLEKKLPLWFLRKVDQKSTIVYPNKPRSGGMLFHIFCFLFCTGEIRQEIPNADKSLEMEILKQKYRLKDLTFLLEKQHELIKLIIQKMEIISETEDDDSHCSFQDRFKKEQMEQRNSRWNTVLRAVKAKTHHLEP
Method: (§1) ±PZQ, (R)-PZQ and (S)-PZQ were screened against a panel of 17 human TRP channels (SB Drug Discovery, Glasgow). For all hTRPs, except for TRPM5, individual channel constructs were stably expressed in HEK cell lines. TRMP5 was expressed in a stable CHO cell line. In preparation for the assays, cells were trypsinized, counted and seeded (50,000 cells/well) in black, clear-bottomed 96 well plates and incubated overnight. The following day, cells were loaded with a fluorescent indicator (FLIPR Calcium 5 Assay kit for TRPA1, TRPV1, TRPV2, TRPV3, TRPV4, TRPV5, TRPC1, TRPM2, TRPM3 and TRPM8, or a membrane potential dye (FLIPR Membrane Potential Red Assay Kit for TRPC3, TRPC4, TRPC5, TRPC6, TRPC7, TRPM4 and TRPM5) prepared according to the manufacturer’s instructions in HEPES buffered Hank’s balanced salt solution (HBSS). Dye solution (10μl) was added to appropriate wells and incubated at 37°C for 1 hour. All assays were performed at room temperature. Compounds were tested at 0.3, 1, 3, 10, 30, 100μM and 300μM in triplicate in both agonist and antagonist mode to determine EC50 and IC50 values, which were compared with reference compounds. Compounds were screened at a final DMSO concentration of 0.5%. Plates were screened using a Flexstation (Molecular Devices, FX01138), monitoring fluorescence values every ~1.52 seconds. For ‘agonist mode’ testing, 10μl of the appropriate test compound, or standard agonist, was added after 20 seconds and fluorescence monitored for 2 minutes at λex = 485nm, λem = 525nm for Ca^2+ imaging and λex = 530nm, λem = 565nm for membrane potential measurements. For ‘antagonist mode’ testing, test compounds and standard inhibitors were added to appropriate wells and incubated for 10 minutes at room temperature prior to addition of standard agonist compound.

hTRPC3 = molecular target: T2, hTRPC3 (Homo sapiens, UniProt Q13507); assay: TRP channel panel primary screen (membrane potential dye, stable HEK line); format: cell-based; conditions: 0.3-300μM; effects over the micromolar range
T2 sequence (Q13507 1-921): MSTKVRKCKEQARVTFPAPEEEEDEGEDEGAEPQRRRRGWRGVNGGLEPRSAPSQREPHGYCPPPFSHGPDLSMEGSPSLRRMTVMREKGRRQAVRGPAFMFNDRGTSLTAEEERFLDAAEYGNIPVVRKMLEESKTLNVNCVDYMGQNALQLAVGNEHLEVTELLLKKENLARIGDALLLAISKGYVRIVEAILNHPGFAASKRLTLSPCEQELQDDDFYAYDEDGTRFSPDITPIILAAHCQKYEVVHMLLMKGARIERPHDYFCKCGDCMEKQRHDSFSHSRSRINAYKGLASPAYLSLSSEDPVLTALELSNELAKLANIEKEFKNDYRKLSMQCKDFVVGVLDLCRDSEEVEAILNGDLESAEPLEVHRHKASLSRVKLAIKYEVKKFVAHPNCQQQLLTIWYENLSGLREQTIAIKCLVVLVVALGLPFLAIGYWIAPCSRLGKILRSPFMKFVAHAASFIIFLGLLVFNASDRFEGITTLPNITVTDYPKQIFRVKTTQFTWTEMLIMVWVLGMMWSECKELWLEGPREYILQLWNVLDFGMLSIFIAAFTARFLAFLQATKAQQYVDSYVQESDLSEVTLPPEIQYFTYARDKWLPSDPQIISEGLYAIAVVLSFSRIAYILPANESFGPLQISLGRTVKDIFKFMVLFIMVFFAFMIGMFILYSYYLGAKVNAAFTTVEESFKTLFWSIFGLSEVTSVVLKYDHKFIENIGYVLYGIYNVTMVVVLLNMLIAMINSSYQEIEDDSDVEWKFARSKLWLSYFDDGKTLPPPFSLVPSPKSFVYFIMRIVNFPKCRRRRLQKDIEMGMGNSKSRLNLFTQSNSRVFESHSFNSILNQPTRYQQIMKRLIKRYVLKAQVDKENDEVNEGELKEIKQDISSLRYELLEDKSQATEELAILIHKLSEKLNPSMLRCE
Method: as §1

hTRPC7 = molecular target: T3, hTRPC7 (Homo sapiens, UniProt Q9HCX4); assay: as above; format: cell-based; conditions: 0.3-300μM; effects over the micromolar range
T3 sequence (Q9HCX4 1-862): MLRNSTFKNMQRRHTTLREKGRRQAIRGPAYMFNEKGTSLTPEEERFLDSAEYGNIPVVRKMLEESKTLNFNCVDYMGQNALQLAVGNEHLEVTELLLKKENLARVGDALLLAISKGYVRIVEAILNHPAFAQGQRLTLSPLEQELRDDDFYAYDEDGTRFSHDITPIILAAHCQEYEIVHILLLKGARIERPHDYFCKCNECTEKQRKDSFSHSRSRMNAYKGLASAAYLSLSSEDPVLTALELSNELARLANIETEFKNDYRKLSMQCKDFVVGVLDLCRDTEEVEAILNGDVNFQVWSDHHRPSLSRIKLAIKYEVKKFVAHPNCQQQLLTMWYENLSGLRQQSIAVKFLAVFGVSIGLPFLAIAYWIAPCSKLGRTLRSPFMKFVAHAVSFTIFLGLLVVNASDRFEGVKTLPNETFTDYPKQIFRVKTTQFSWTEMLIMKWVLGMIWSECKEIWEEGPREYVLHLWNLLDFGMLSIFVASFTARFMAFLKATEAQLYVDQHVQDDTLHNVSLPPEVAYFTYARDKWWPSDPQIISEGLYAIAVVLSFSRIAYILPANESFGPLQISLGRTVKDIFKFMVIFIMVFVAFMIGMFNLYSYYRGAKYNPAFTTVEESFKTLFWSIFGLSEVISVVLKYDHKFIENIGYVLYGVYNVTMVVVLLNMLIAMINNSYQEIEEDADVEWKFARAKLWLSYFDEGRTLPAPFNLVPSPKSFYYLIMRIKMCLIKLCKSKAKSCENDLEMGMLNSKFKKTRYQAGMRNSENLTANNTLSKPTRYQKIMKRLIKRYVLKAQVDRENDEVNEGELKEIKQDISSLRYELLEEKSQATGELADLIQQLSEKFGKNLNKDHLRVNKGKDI
Method: as §1

hTRPA1 [3] = molecular target: T1, hTRPA1; assay: Single cell confocal Ca2+ imaging (fluo-4) in transfected HEK293 cells; format: cell-based; design: host or cells: HEK293 (ATCC CRL-1573.3), transient; conditions: for Ca2+ response in hTRPA1 expressing cells: 100μM
Excerpt: (§2) Human TRPM8 cDNA was a VersaClone from R&D Systems (RDC0188). Plasmids encoding human TRPA1 and human TRPV1 cDNA were purchased from DNASU plasmid repository (HsCD00080227 and HsCD00081472, respectively). The TRP channel coding sequences were subcloned into pCS2+ to introduce a COOH-term myc tag using the InFusion HD method (Clontech), HindIII/XhoI restriction enzymes (NEB) and the following primers: TRPM8 F–TGGGGACGTCGGAGC-aagctt-[…]; TRPM8 R–AAATCGATGGGATGC-ctcgag-[…]; TRPA1 F-GGACGTCGGAGC-aagctt- atgaagcgcagcctgagg; TRPA1 R-TCGATGGGATGC-ctcgag-[…]; TRPV1 F–GGACGTCGGAGC-aagctt-[…]; TRPV1 R-TCGATGGGATGC-ctcgag-cttctccccggaagcgg (where upper case specifies vector-specific sequences, italics indicate restriction sites, and lower case indicates TRP channel specific sequences). Primers are listed in a 5’ to 3’ orientation.
(§3) HEK293 cells (ATCC CRL-1573.3) were cultured in DMEM supplemented with 10% fetal bovine serum (FBS), penicillin (100 units/ml), streptomycin (100 μg/ml), and L-glutamine (290 μg/ml). Cells were transiently transfected (Lipofectamine LTX, Thermo Fisher) at a density of 2x10^6 cells per T-25 cell-culture flask with TRP channel cDNA. For Ca^2+ imaging assays, HEK293 cells were seeded onto 8-chambered coverglass slides (Thermo Fisher, 115411PK), at a density of 1x10^4 cells one day prior to imaging. Cells were washed twice with HBSS, and incubated with fluo-4-AM (4μM), pluronic F127 (0.4%) and probenecid (2.5mM) for 25 minutes at room temperature. Cells were then washed twice with HBSS, and left at room temperature (30 minutes) for de-esterification. Dishes were mounted on an Olympus IX81 microscope and fluorescence changes (λex = 488nM, λem = 513±15nm bandpass filter) monitored using a Yogokawa spinning disk confocal (CSU-X-M1N) and an Andor iXon Ultra 888 EMCCD camera.

hTRPM8 = hTRPM8 (Homo sapiens, UniProt Q7Z2W7); assay: as above; format: cell-based; design: host or cells: HEK293 (ATCC CRL-1573.3), transient; conditions: for cytoplasmic Ca2+ signal in TRPM8 expressing cells: menthol 300μM, ±PZQ 100μM, (R)-PZQ or (S)-PZQ 50μM
Sequence of hTRPM8 (Q7Z2W7 whole entry): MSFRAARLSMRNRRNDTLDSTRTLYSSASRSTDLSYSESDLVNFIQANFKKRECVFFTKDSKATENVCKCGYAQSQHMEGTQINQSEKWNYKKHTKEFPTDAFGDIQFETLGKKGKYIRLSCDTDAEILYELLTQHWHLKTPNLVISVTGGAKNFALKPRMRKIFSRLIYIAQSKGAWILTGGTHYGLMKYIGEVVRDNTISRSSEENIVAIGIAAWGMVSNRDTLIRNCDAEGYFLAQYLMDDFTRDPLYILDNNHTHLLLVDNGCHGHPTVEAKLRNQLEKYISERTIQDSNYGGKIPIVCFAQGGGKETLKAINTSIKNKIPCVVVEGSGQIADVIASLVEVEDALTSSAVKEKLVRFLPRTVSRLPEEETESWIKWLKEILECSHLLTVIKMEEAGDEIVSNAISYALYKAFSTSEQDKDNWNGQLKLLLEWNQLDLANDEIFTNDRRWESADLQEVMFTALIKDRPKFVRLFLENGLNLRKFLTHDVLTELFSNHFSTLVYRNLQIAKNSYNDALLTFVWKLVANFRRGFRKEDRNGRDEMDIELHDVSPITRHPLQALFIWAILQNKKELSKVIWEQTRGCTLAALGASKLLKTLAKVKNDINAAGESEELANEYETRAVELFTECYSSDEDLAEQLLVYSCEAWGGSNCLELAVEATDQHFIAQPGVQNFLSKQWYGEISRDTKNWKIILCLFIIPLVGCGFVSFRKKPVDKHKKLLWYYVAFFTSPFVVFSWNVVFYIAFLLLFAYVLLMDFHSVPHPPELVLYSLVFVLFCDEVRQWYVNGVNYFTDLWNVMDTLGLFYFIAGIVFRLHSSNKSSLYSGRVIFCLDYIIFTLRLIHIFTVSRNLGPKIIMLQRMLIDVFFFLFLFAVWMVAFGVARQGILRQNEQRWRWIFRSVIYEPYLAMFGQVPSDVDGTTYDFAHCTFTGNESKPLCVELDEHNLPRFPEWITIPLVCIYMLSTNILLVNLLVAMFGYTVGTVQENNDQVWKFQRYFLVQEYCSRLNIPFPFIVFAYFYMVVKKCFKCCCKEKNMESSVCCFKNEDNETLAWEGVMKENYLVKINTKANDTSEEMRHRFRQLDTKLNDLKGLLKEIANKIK
Excerpt: as §2, §3

[4] = test system: untransfected HEK293 cells; assay: Confocal Ca2+ imaging in untransfected HEK293 cells (control); format: cell-based, human; conditions: menthol 300μM, ±PZQ 100μM, ACh 100μM, capsaicin 1μM, AITC 100μM
Method: as §3

[5] = test system: mesenteric vessels isolated from a TRPM8 knockout mouse; assay: Wire myography, KPSS-contracted mesenteric vessels from TRPM8 knockout mice; conditions: TRPM8 KO; menthol 300μM, icilin 50μM, WS-12 50μM
TRPV1 = TRPV1 (Homo sapiens, UniProt Q8NER1); assay: Single cell confocal Ca2+ imaging (fluo-4) in transfected HEK293 cells; format: cell-based; design: host or cells: HEK293 (ATCC CRL-1573.3), transient
Sequence of TRPV1 (Q8NER1 whole entry): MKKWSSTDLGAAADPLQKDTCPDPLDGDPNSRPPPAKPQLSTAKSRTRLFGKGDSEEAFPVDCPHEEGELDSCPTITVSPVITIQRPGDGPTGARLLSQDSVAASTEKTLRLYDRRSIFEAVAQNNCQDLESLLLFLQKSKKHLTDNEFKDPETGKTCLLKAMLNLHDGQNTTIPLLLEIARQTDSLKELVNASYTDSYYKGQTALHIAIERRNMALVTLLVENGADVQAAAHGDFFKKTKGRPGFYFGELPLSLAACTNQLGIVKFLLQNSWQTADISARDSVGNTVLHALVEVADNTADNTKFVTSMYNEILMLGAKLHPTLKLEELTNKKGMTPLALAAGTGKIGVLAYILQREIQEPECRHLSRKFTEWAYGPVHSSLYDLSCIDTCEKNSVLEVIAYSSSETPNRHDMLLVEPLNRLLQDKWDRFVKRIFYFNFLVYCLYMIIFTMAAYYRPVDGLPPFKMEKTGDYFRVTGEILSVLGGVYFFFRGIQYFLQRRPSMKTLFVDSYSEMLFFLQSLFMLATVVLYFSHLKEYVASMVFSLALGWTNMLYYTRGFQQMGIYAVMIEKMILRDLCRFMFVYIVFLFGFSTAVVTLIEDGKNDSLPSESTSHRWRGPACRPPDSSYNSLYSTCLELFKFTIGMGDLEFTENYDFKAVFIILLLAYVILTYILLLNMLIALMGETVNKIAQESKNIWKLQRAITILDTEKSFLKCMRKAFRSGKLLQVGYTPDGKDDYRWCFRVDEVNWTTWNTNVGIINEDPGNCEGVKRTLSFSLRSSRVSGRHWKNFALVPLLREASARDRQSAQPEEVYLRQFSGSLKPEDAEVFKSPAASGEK
Excerpt: as §2, §3

activity at hTRPA1 in primary screen (hTRPA1 [2]): activated
activity at hTRPC3 in primary screen (hTRPC3): activated
activity at hTRPC7 in primary screen (hTRPC7): activated
Ca2+ response in hTRPA1 expressing cells (hTRPA1 [3]): activation of hTRPA1
cytoplasmic Ca2+ signal in TRPM8 expressing cells (hTRPM8): without effect
Compound: O=C(C1CCCCC1)N1CC(=O)N2CCc3ccccc3[C@@H]2C1 [(R)-PZQ]
change in tension of KPSS-precontracted vessels ([1]; 50μM, bath application during KPSS-evoked contraction): initial, small contraction

Compound: CC(=O)OCC[N+](C)(C)C [ACh, acetylcholine]
Ca2+ response in untransfected HEK293 cells [4]: caused Ca^2+ transients

Compound: C=CCN=C=S [AITC, allyl isothiocyanate]
Ca2+ response in untransfected HEK293 cells [4]: without effect
Ca2+ response in hTRPA1 expressing cells (hTRPA1 [3]): elevation of cytoplasmic Ca^2+

block of AITC-evoked Ca2+ elevation (hTRPA1 [3]; preincubation, 1μM): blocked
block of ±PZQ-evoked Ca2+ responses (hTRPA1 [3]; preincubation, 1μM): blocked
Compound: Cn1cnc2ncn(Cc3nc(CCc4ccc(Cl)cc4)no3)c(=O)c21 [AM-0902]

Compound: Cc1cccc(COc2ccccc2C(=O)N(CCCN)Cc2cccs2)c1 [AMTB]
block of Ca2+ transients evoked by (S)-PZQ or menthol (hTRPM8; AMTB 10μM added 30min before agonists): blocked

Compound: COc1ccc(NC(=O)[C@@H]2C[C@H](C)CC[C@H]2C(C)C)cc1 [WS-12]
relaxation of KPSS-contracted vessel strips by TRPM8 agonists [1]: completely relaxed
vasorelaxant effect in TRPM8 KO background [5]: persisted

Ca2+ signal in TRPV1 expressing cells (TRPV1; capsaicin 1μM, ±PZQ 100μM): evoked Ca^2+ signals
Compound: COc1cc(CNC(=O)CCCC/C=C/C(C)C)ccc1O [capsaicin]
Ca2+ response in untransfected HEK293 cells [4]: neither the addition of the TRPV1 agonist capsaicin (1μM) nor addition of ±PZQ evoked a Ca^2+ response

block of capsaicin-evoked Ca2+ signals (TRPV1; capsazepine 10μM): blocked
Compound: Oc1cc2c(cc1O)CN(C(=S)NCCc1ccc(Cl)cc1)CCC2 [capsazepine]

Compound: O=C1NC(c2cccc([N+](=O)[O-])c2)=CCN1c1ccccc1O [icilin]
relaxation of KPSS-contracted vessel strips by TRPM8 agonists [1]: completely relaxed
vasorelaxant effect in TRPM8 KO background [5]: persisted

Compound: CC1CCC(C(C)C)C(O)C1 (stereo not drawn) [menthol]
relaxation of KPSS-contracted vessel strips by TRPM8 agonists [1]: completely relaxed
vasorelaxant effect in TRPM8 KO background [5]: persisted
Ca2+ response in untransfected HEK293 cells [4]: neither ±PZQ or menthol elevated cytoplasmic Ca^2+ levels
menthol-evoked Ca2+ signals in Ca2+-free media (hTRPM8; 300μM, Ca2+-free media): not observed
cytoplasmic Ca2+ signal in TRPM8 expressing cells (hTRPM8): rapidly elevated cytoplasmic Ca^2+
